Assay results: US5366982A (priority 1990, dated 1994)

The compounds below were run against leukotriene B4 receptors (Cavia porcellus, UniProt H0VYV8) (assay: biochemical). Details: Table XIX; guinea-pig spleen membranes, tritium-labelled LTB4; read-out: IC50 Binding (Cheng).
Type: binding, guinea-pig

Chain of leukotriene B4 receptors (H0VYV8 1-348): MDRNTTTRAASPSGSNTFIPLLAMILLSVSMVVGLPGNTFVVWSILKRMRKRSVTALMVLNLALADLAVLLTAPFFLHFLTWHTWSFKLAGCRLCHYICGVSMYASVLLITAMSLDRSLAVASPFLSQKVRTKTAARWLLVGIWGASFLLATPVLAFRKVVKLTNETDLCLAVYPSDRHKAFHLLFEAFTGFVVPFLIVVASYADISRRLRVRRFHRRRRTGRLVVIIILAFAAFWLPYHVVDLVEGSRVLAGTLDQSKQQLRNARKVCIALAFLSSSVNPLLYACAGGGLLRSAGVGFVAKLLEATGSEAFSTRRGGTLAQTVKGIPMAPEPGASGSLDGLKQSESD

IC50	Compound
160 nM	NC(=O)CCCCCOc1cc(-c2ccccc2)cc(-c2ccccc2)n1 [6-[(4,6-diphenyl-2-pyridyl)oxy]hexanamide]
10 nM	O=C(O)CCCCCOc1cc(-c2ccc(Cl)cc2)cc(-c2ccccc2)n1 [6-{[4-(4-chlorophenyl)-6-phenyl-2-pyridyl]oxy}hexanoic acid]
3 nM	O=C(O)CCCCCOc1cc(-c2ccc(F)cc2)cc(-c2ccccc2)n1 [6-{[4-(4-fluorophenyl)-6-phenyl-2-pyridyl]oxy}hexanoic acid]
17 nM	CCC(C)(CCCCOc1cc(-c2ccccc2)cc(-c2ccccc2)n1)C(=O)O (stereo not drawn) [2-ethyl-2-methyl-6-[(4,6-diphenyl-2-pyridyl)oxy]hexanoic acid]
10 nM	O=C(O)CCCCCOc1cc(-c2ccccc2)cc(-c2ccsc2)n1 [6-{[4-phenyl-6-(3-thienyl)-2-pyridyl]oxy}hexanoic acid]
300 nM	CC(C)(C)c1cc(-c2ccccc2)cc(OCCCCCC(=O)O)n1 [6-[(6-ter-butyl-5-phenyl-2-pyridyl)oxy]hexanoic acid]
8 nM	O=C(O)CCCCCOc1cc(-c2ccccc2)cc(-c2ccccc2)c1 [6-(3,5-diphenyl-phenoxy)hexanoic acid]
700 nM	O=C(O)CCCCCOc1cc(-c2ccccc2)c2ccccc2n1 [6-[(4-phenyl-2-quinolyl)oxy]hexanoic acid]
1200 nM	O=C(O)CCCCCOc1cc(-c2ccc(Cl)cc2)cc(-c2ccc(Cl)cc2)n1 [6-{[4,6-di(4-chlorophenyl)-2-pyridyl]oxy}hexanoic acid]
100 nM	CC(C)(CCCCOc1cc(-c2ccc(Cl)cc2)cc(-c2ccccc2)n1)C(=O)O [2,2-dimethyl-6-{[4-(4-chlorophenyl)-6-phenyl-2-pyridyl]oxy}hexanoic acid]
1800 nM	O=C(O)CCCCCCOc1cc(-c2ccccc2)c2ccccc2n1 [7-[(4-phenyl-2-quinolyl)oxy]heptanoic acid]
300 nM	Cc1ccc(-c2cc(-c3ccccc3)cc(OCCCCCC(=O)O)n2)cc1 [6-{[6-(4-methylphenyl)-4-phenyl-2-pyridyl]oxy}hexanoic acid]
6000 nM	O=C(O)CCCCCCCOc1cccc(-c2ccccc2)n1
1000 nM	COc1ccc(-c2cc(-c3ccccc3)cc(OCCCCCC(=O)O)n2)cc1 [6-{[6-(4-methoxyphenyl)-4-phenyl-2-pyridyl]oxy}hexanoic acid]
4 nM	O=C(O)CCCCCOc1cc(-c2cccc(Cl)c2)cc(-c2ccccc2)n1 [6-{[4-(3-chlorophenyl)-6-phenyl-2-pyridyl]oxy}hexanoic acid]
12 nM	Nc1cccc(-c2cc(OCCCCCC(=O)O)nc(-c3ccccc3)c2)c1 [6-{[4-(3-aminophenyl)-6-phenyl-2-pyridyl]oxy}hexanoic acid]
16 nM	O=C(O)CNC(=O)CCCOc1cc(-c2ccccc2)cc(-c2ccccc2)n1 [N-[4-(4,6-diphenyl-2-pyridyloxy)butanoyl]glycine]
4000 nM	O=C(O)CCCCCOc1cc(-c2ccc(NC(=O)c3ccccc3)cc2)cc(-c2ccccc2)n1 [6-{[4-(4-benzamidophenyl)-6-phenyl-2-pyridyl]oxy}hexanoic acid]

The next lines start with the compound.

Compound	IC50
CC(C)(CCCCOc1cc(-c2ccccc2)ccn1)C(=O)O [6-[(4-phenyl-2-pyridyl)oxy]-2,2-dimethylhexanoic acid]	40 nM
COc1ccc(-c2cc(OCCCCCC(=O)O)nc(-c3ccc(Cl)cc3)c2)cc1 [6-{[6-(4-chlorophenyl)-4-(4-methoxyphenyl)-2-pyridyl]oxy}hexanoic acid]	1200 nM
Cc1cc(-c2ccccc2)cc(OCCCCC(C)(C)C(=O)O)n1 [6-[(6-methyl-4-phenyl-2-pyridyl)oxy]-2,2-dimethylhexanoic acid]	10 nM
O=C(O)CCCCC=Cc1cccc(Cc2ccccc2)c1 [7-(3-benzyl-phenyl)6-heptenoic acid, 7-(3-benzyl-phenyl)-6-heptenoic acid]	10000 nM
CC(C)(CCCCOc1cc(-c2ccc(N)cc2)c2ccccc2n1)C(=O)O [2,2-dimethyl-6-{[4-(4-aminophenyl)-2-quinolyl]oxy}hexanoic acid]	40 nM
Cc1ccc(-c2cc(OCCCCC(C)(C)C(=O)O)nc3ccccc23)cc1 [2,2-dimethyl-6-{[4-(4-tolyl)-2-quinolyl]oxy}hexanoic acid]	30 nM
O=C(O)CCCCCCc1cccc(Cc2ccccc2)c1 [7-(3-benzylphenyl)heptanoic acid, 7-(3-benzyl-phenyl)heptanoic acid]	7000 nM
CC(C)(CCCCOc1cc(-c2ccc(F)cc2)c2ccccc2n1)C(=O)O [2,2-dimethyl-6-{[4-(4-fluorophenyl-2-quinolyl]oxy}hexanoic acid]	150 nM
CCC(C)(CCCCOc1cc(-c2ccccc2)c2ccccc2n1)C(=O)O (stereo not drawn) [2-ethyl-2-methyl-6-[(4-phenyl-2-quinolyl)oxy]hexanoic acid]	110 nM
CC(C)(CCCCOc1cc(-c2ccccc2)c2cc(Cl)ccc2n1)C(=O)O [2,2-dimethyl-6-[(6-chloro-4-phenyl-2-quinolyl)oxy}hexanoic acid]	2500 nM
COc1ccc(-c2cnc(OCCCCCC(=O)O)nc2-c2ccc(OC)cc2)cc1 [6-[4,5-bis-(4-methoxyphenyl)-2-pyrimidyloxy]hexanoic acid]	8000 nM
6-[(6-cyclopropyl-5-phenyl-2-pyridyl)oxy]hexanoic acid	40 nM
COc1ccc(-c2cc(OCCCCCC(=O)O)nc(-c3ccc(OC)cc3)c2)cc1 [6-{[4,6-di(4-methoxyphenyl)-2-pyridyl]oxy}hexanoic acid]	3000 nM
Cc1cccc(-c2cc(OCCCCC(C)(C)C(=O)O)nc3ccccc23)c1 [2,2-dimethyl-6-{[4-(3-tolyl)-2-quinolyl]oxy}hexanoic acid]	3500 nM
Cc1ccc2c(-c3ccccc3)cc(OCCCCC(C)(C)C(=O)O)nc2c1 [2,2-dimethyl-6-[(7-methyl-4-phenyl-2-quinolyl)oxy]hexanoic acid]	2000 nM

Same assay, conditions: read-out: Binding (Cheng) % Inhibition at 10 μM

inhibition at 10 µM	Compound
48%	O=C(O)CCCCCOc1ncc(-c2ccc(Cl)cc2)c(-c2ccc(Cl)cc2)n1 [6-[4,5-bis-(4-chlorophenyl)-2-pyrimidyloxy]hexanoic acid]
15%	O=C(O)CCCCCOc1ccc(-c2ccccc2)c(-c2ccccc2)n1 [6-[(5,6-diphenyl-2-pyridyl)oxy]hexanoic acid]
30%	COc1ccc2nc(OCCCCCC(=O)O)cc(-c3ccccc3)c2c1 [6-[(6-methoxy-4-phenyl-2-quinolyl)oxy]hexanoic acid]
22%	O=C(O)CCCCCCOc1ncc(-c2ccccc2)c(-c2ccccc2)n1 [7-(4,5-diphenyl-2-pyrimidyloxy)heptanoic acid]

Compound	inhibition at 10 µM
O=C(O)CCCCCCCSc1cc(-c2ccccc2)c2ccccc2n1 [sodium 8-[(4-phenyl-2-quinolyl)thio]octanoate]	31%

The compounds below were run on guinea-pig pulmonary parenchyma (assay: L. Parenchyma: guinea-pig pulmonary parenchyma contraction antagonism induced by LTB4 (Sirois)). Details: Cavia porcellus; Table XIX; guinea-pig pulmonary parenchyma contraction induced by LTB4; read-out: IC50 L. Parenchyma.
Type: cell-based
Method: Further, compounds of this invention are shown to be leukotriene B4 antagonists in the technique of guinea-pig pulmonary parenchyma contraction antagonism induced by LTB4 described by P. Sirois et al., Pharmacology, 31, 225-236 (1985). In this technique, products are active at concentrations of between about 1 to about 10,000 nM.

IC50	Compound
6000 nM	CN(C)c1ccc(-c2cc(OCCCCCC(=O)O)nc(-c3ccccc3)c2)cc1 [6-{[4-(4-dimethylaminophenyl)-6-phenyl-2-pyridyl]oxy}hexanoic acid]
> 1000 nM	NC(=O)CCCCCOc1cc(-c2ccccc2)cc(-c2ccccc2)n1 [6-[(4,6-diphenyl-2-pyridyl)oxy]hexanamide]
100 nM	O=C(O)CCCCCOc1cc(-c2ccc(Cl)cc2)cc(-c2ccccc2)n1 [6-{[4-(4-chlorophenyl)-6-phenyl-2-pyridyl]oxy}hexanoic acid]
40 nM	Nc1ccc(-c2cc(OCCCCCC(=O)O)nc(-c3ccccc3)c2)cc1 [6-{[4-(4-aminophenyl)-6-phenyl-2-pyridyl]oxy}hexanoic acid]
30 nM	CC(C)(CCCCCOc1cc(-c2ccccc2)cc(-c2ccccc2)n1)C(=O)O [2,2-dimethyl-7-[(4,6-diphenyl-2-pyridyl)oxy]heptanoic acid]
800 nM	O=C(O)CCCCCOc1cc(-c2ccc(F)cc2)cc(-c2ccccc2)n1 [6-{[4-(4-fluorophenyl)-6-phenyl-2-pyridyl]oxy}hexanoic acid]
30 nM	CCC(C)(CCCCOc1cc(-c2ccccc2)cc(-c2ccccc2)n1)C(=O)O (stereo not drawn) [2-ethyl-2-methyl-6-[(4,6-diphenyl-2-pyridyl)oxy]hexanoic acid]
70 nM	CC(CCCCOc1cc(-c2ccc(Cl)cc2)cc(-c2ccccc2)n1)C(=O)O (stereo not drawn) [2-methyl-6-{[4-(4-chlorophenyl)-6-phenyl-2-pyridyl]oxy}hexanoic acid]
1000 nM	O=C(O)CCCCCOc1cc(-c2ccccc2)cc(-c2ccsc2)n1 [6-{[4-phenyl-6-(3-thienyl)-2-pyridyl]oxy}hexanoic acid]
2000 nM	CC(C)(C)c1cc(-c2ccccc2)cc(OCCCCCC(=O)O)n1 [6-[(6-ter-butyl-5-phenyl-2-pyridyl)oxy]hexanoic acid]
1700 nM	O=C(O)CCCCCOc1cc(-c2ccccc2F)cc(-c2ccccc2)n1 [6-{[4-(2-fluorophenyl)-6-phenyl-2-pyridyl]oxy}hexanoic acid]
150 nM	CNc1ccc(-c2cc(OCCCCCC(=O)O)nc(-c3ccccc3)c2)cc1 [6-{[4-(4-methylaminophenyl)-6-phenyl-2-pyridyl]oxy}hexanoic acid]
20 nM	Cc1ccc(-c2cc(OCCCCC(C)C(=O)O)nc(-c3ccccc3)c2)cc1 (stereo not drawn) [2-methyl-6-{[4-(4-methylphenyl)-6-phenyl-2-pyridyl]oxy}hexanoic acid]
10 nM	CC(C)(CCCCOc1cc(-c2ccccc2)cc(-c2ccccc2)n1)C(=O)O [2,2-dimethyl-6-[(4,6-diphenyl-2-pyridyl)oxy]hexanoic acid]
20 nM	CC(CCCCOc1cc(-c2ccc(N)cc2)cc(-c2ccccc2)n1)C(=O)O (stereo not drawn) [2-methyl-6-{[4-(4-aminophenyl)-6-phenyl-2-pyridyl]oxy}hexanoic acid]

The next lines start with the compound.

Compound	IC50
CC(C)(CCCCOc1cc(-c2ccccc2)ccn1)C(=O)O [6-[(4-phenyl-2-pyridyl)oxy]-2,2-dimethylhexanoic acid]	3000 nM
COc1ccc(-c2cc(OCCCCCC(=O)O)nc(-c3ccc(Cl)cc3)c2)cc1 [6-{[6-(4-chlorophenyl)-4-(4-methoxyphenyl)-2-pyridyl]oxy}hexanoic acid]	> 10000 nM
c1ccc(-c2cc(OCCCCCc3nn[nH]n3)nc(-c3ccccc3)c2)cc1 [5-{[5-(4,6-diphenyl-2-pyridyl)oxy]pentyl}-[1H]-tetrazole]	10 nM
CC(CCCCOc1cc(-c2cccc(Cl)c2)cc(-c2ccccc2)n1)C(=O)O (stereo not drawn) [2-methyl-6-{[4-(3-chlorophenyl)-6-phenyl-2-pyridyl]oxy}hexanoic acid]	1000 nM
COc1cccc(-c2cc(OCCCCC(C)C(=O)O)nc(-c3ccccc3)c2)c1 (stereo not drawn) [2-methyl-6-{[4-(3-methoxyphenyl)-6-phenyl-2-pyridyl]oxy}hexanoic acid]	20 nM
COc1ccc(-c2cc(OCCCCC(C)C(=O)O)nc(-c3ccccc3)c2)cc1 (stereo not drawn) [2-methyl-6-{[4-(4-methoxyphenyl)-6-phenyl-2-pyridyl]oxy}hexanoic acid]	20 nM
CC(C)(CCCCOc1cc(-c2ccc3c(c2)OCO3)cc(-c2ccccc2)n1)C(=O)O [2,2-dimethyl-6-{[4-(3,4-methylenedioxyphenyl)-6-phenyl-2-pyridyl]oxy}hexanoic acid]	140 nM
